Data as given in patent publication US10329243B2, “Biphenyl derivative and uses thereof” (XI'AN LIBANG PHARMACEUTICAL CO., LTD, priority 2015, dated 2019).

Tests used:
Format in all cases: in vivo, SD rats
TNF-α [1] = assay: Determination of TNF-α in brain tissue homogenate, cerebral ischemic reperfusion MCAO model
Protocol: (§1) Rats were intraperitoneally injected with 10% chloral hydrate 350 mg/kg after anesthesia and opened up at the center of the neck in accordance with the Zea Longa modified method. The right common carotid artery was separated, and the right external carotid artery branches was ligated. A small opening was made at the distal end of the external carotid artery, and a previously prepared thread was inserted through the common carotid artery and the external carotid artery bifurcation into the internal carotid artery, till the anterior end of the middle cerebral artery, with an immersed depth of 18 to 19 mm. The thread was then secured, and the wound was sutured layer by layer. After the operation, the rats were placed in a clean incubator to wake up. […] The sham operation group, the ischemic reperfusion group, and the Example groups were prepared strictly according to the requirements of the cerebral ischemic reperfusion model, while in the sham operation group the thread was put only into the external carotid artery. The animals were allowed to eat and drink freely after waking up. After 2 h, the thread was pulled out to achieve reperfusion. The sham operation group, the ischemic reperfusion group, and the Example groups were administered intravenously the aqueous solution of the biphenyl derivatives in PEG400 at 40 mg/kg (40 mg/kg means that 40 mg of the test compound per kg of the body weight of rats) 30 min before reperfusion and 12 h after reperfusion, respectively. The sham operation group and the ischemic reperfusion group were injected with the same amount of blank PEG400 aqueous solution at the same time point.
(§2) 24 hours after reperfusion, 8 rats in each group were sacrificed by decapitation, the brain was removed, rinsed with PBS (pH 7.4) at −20° i for 20 min, evenly sliced (with a thickness of 2 mm), stained in a 2% TTC solution at 37°% in the dark for 30 min, fixed in 10% formalin for 24 h, and photographs were taken to analyze the infarct volume. A mixture of femoral arterial and venous blood was drawn from another 8 rats in each group under anesthesia, placed in a low temperature centrifuge at 4° C., centrifuged at 3500 r/min for 20 min, and the supernatant was stored in a refrigerator at −20° C. ready for SOD and MDA detection. After the blood was drawn, a perfusion needle was insert through the apex to the ascending aorta, and saline at 4° C. was rapid infused until the effluent became clear, followed by 4% paraformaldehyde phosphate buffer perfusion for fixation; the brain was removed by craniotomy, and brain tissues 2 mm in front of and behind the optic chiasma were taken and fixed, dehydrated, rendered transparent, impregnated in wax, and embedded. Brain continuous coronary tissue pathological sections were consecutively cut for later use. The remaining 8 rats in each group were sacrificed, brains were removed, the ischemic brain hemispheres were immediately taken on an ice tray, and 10% brain tissue homogenate was prepared for the detection of IL-1β and TNF-α.
(§3) Brain tissue homogenate was hypothermally centrifuged at 3000 rpm for 15 min, the supernatant was taken, and IL-1β and TNF-α were determined in strict accordance with instructions of the kits.

IL-1β [2] = assay: Determination of IL-1β in brain tissue homogenate, permanent cerebral ischemia model
Protocol: as §1, with “the permanent cerebral ischemia model” for “the ischemic reperfusion”, “up.” for “up. After 2 h, the thread was pulled out to achieve reperfusion.”, “before insertion of thread” for “before reperfusion”, “after embolism,” for “after reperfusion,”
as §2, with “the embolism,” for “reperfusion,”, “−20°i” for “−20° i”
as §3

SOD [3] = assay: SOD determination, permanent cerebral ischemia model
Protocol: as §1, with “the permanent cerebral ischemia model” for “the ischemic reperfusion”, “up.” for “up. After 2 h, the thread was pulled out to achieve reperfusion.”, “before insertion of thread” for “before reperfusion”, “after embolism,” for “after reperfusion,”
as §2, with “the embolism,” for “reperfusion,”, “−20°i” for “−20° i”
(§4) SOD and MDA were determined strictly in accordance with instructions of the kit.

TNF-α [4] = assay: Determination of TNF-α in brain tissue homogenate, permanent cerebral ischemia model
Protocol: as §1, with “the permanent cerebral ischemia model” for “the ischemic reperfusion”, “up.” for “up. After 2 h, the thread was pulled out to achieve reperfusion.”, “before insertion of thread” for “before reperfusion”, “after embolism,” for “after reperfusion,”
as §2, with “the embolism,” for “reperfusion,”, “−20°i” for “−20° i”
as §3

SOD [5] = assay: SOD determination, cerebral ischemic reperfusion MCAO model
Protocol: as §1, §2, §4

IL-1β [6] = assay: Determination of IL-1β in brain tissue homogenate, cerebral ischemic reperfusion MCAO model
Protocol: as §1, §2, §3

[7] = tested on: rats with cerebral ischemic reperfusion injury; assay: Relative infarct volume (TTC, imageJ), cerebral ischemic reperfusion MCAO model
Protocol: as §1, §2
The infarct area in each brain section was analyzed and quantified by the imageJ image software, and the ratio of cerebral infarction volume in the overall brain volume was calculated.

[8] = ischemic reperfusion rat model, edaravone 3 mg/kg
[9] = permanent cerebral ischemia model rats, edaravone 3 mg/kg
[10] = ischemic reperfusion MCAO rats, 40 mg/kg intravenously, 10% brain tissue homogenate, 24 h after reperfusion, 40 mg/kg
[11] = permanent cerebral ischemia model rats, 40 mg/kg intravenously, 10% brain tissue homogenate, 24 h after the embolism, 40 mg/kg
[12] = ischemic reperfusion MCAO rats, 40 mg/kg intravenously, 10% brain tissue homogenate, 24 h after reperfusion
[13] = permanent cerebral ischemia model rats, 40 mg/kg intravenously, 10% brain tissue homogenate, 24 h after the embolism
[14] = permanent cerebral ischemia model rats, 40 mg/kg intravenously, serum, 24 h after the embolism
[15] = ischemic reperfusion MCAO rats, 40 mg/kg intravenously 30 min before and 12 h after reperfusion, serum, 24 h after reperfusion
[16] = ischemic reperfusion MCAO rats, 40 mg/kg intravenously 30 min before and 12 h after reperfusion, 24 h after reperfusion

Compound | TNF-α content (TNF-α [1]; [12]) [ng/mL] | IL-1β content (IL-1β [2]; [13]) [ng/mL] | SOD ACTIVITY (U/mL) (SOD [3]; [14]) | TNF-α content (TNF-α [4]; [13]) [ng/mL] | SOD ACTIVITY (U/mL) (SOD [5]; [15]) | IL-1β content (IL-1β [6]; [12]) [ng/mL] | Relative Brain infarction volume (%) [7, 16] [%] | further results
3,3′,5,5′-tetraisopropylbiphenyl-4,4′-bis(oxymethylene phosphate) [Example 3 group] |  |  |  |  |  |  |  | TNF-α content (TNF-α [1]; rat, in vivo, iv, 40 mg/kg): 4.26 ± 0.54 ng/mL; IL-1β content (IL-1β [2]; rat, in vivo, iv, 40 mg/kg): 0.67 ± 0.08 ng/mL; SOD ACTIVITY (U/mL) (SOD [3]; rat, in vivo, iv, 40 mg/kg): 93.61 ± 2.13 U/mL; TNF-α content (TNF-α [4]; rat, in vivo, iv, 40 mg/kg): 4.45 ± 0.91 ng/mL; SOD ACTIVITY (U/mL) (SOD [5]; rat, in vivo, iv, 40 mg/kg): 93.15 ± 3.05 U/mL; IL-1β content (IL-1β [6]; rat, in vivo, iv, 40 mg/kg): 0.66 ± 0.05 ng/mL; Relative Brain infarction volume (%) ([7]; rat, in vivo, iv, 40 mg/kg): 25.41 ± 3.59 %
CC1=NN(c2ccccc2)C(=O)C1 [Edaravone injection, edaravone, reference compound] |  |  |  |  |  |  |  | TNF-α content (TNF-α [1]; [8]): 5.14 ± 0.44 ng/mL; IL-1β content (IL-1β [2]; [9]): 0.76 ± 0.04 ng/mL; SOD ACTIVITY (U/mL) (SOD [3]; [9]): 90.62 ± 3.81 U/mL; TNF-α content (TNF-α [4]; [9]): 5.53 ± 0.54 ng/mL; SOD ACTIVITY (U/mL) (SOD [5]; [8]): 88.16 ± 3.99 U/mL; IL-1β content (IL-1β [6]; [8]): 0.75 ± 0.05 ng/mL; Relative Brain infarction volume (%) [7, 8]: 29.31 ± 3.95 %
CC(=O)Oc1c(C(C)C)cc(-c2cc(C(C)C)c(O)c(C(C)C)c2)cc1C(C)C [Example 1 group, 4′-hydroxy-3,3′,5,5′-tetraisopropylbiphenyl-4-acetate] |  |  |  |  |  |  |  | TNF-α content (TNF-α [1]; [10]): 4.11 ± 0.72 ng/mL; IL-1β content (IL-1β [2]; [11]): 0.64 ± 0.09 ng/mL; SOD ACTIVITY (U/mL) (SOD [3]; permanent cerebral ischemia model rats, 40 mg/kg intravenously, serum, 24 h after the embolism, 40 mg/kg): 97.36 ± 4.51 U/mL; TNF-α content (TNF-α [4]; [11]): 4.25 ± 0.66 ng/mL; SOD ACTIVITY (U/mL) (SOD [5]; ischemic reperfusion MCAO rats, 40 mg/kg intravenously 30 min before and 12 h after reperfusion, serum, 24 h after reperfusion, 40 mg/kg): 96.78 ± 2.94 U/mL; IL-1β content (IL-1β [6]; [10]): 0.63 ± 0.12 ng/mL; Relative Brain infarction volume (%) ([7]; ischemic reperfusion MCAO rats, 40 mg/kg intravenously 30 min before and 12 h after reperfusion, 24 h after reperfusion, 40 mg/kg): 18.71 ± 4.69 %
CC(=O)Oc1c(C(C)C)cc(-c2cc(C(C)C)c(OC(C)=O)c(C(C)C)c2)cc1C(C)C [Example 2 group, 3,3′,5,5′-tetraisopropylbiphenyl-4′-diacetate] | 5.03 ± 0.59 | 0.78 ± 0.12 | 93.28 ± 3.49 | 5.15 ± 0.88 | 94.46 ± 2.19 | 0.79 ± 0.11 | 23.22 ± 3.12 | 
CC(C)c1cc(-c2cc(C(C)C)c(OC(=O)CCC(=O)O)c(C(C)C)c2)cc(C(C)C)c1O [Example 5 group, [4-(4′-hydroxy-3,3′,5,5′-tetraisopropylbiphenyl)oxy]-4-carbonyl butyric acid] | 5.01 ± 0.59 | 0.72 ± 0.11 | 95.31 ± 4.11 | 5.23 ± 0.48 | 95.01 ± 3.22 | 0.74 ± 0.09 | 23.55 ± 5.67 | 
CCCc1cc(-c2cc(CCC)c(O)c(C(C)C)c2)cc(C(C)C)c1O [Example 6 group, 4,4′-dihydroxy-3,3′-diisopropyl-5,5′-dipropylbiphenyl] | 4.16 ± 0.44 | 0.55 ± 0.05 | 97.21 ± 4.36 | 4.99 ± 0.53 | 96.89 ± 3.49 | 0.64 ± 0.03 | 19.35 ± 4.02 | 
CCCc1cc(-c2cc(CCC)c(O)c(CCC)c2)cc(CCC)c1O [Example 7 group, 4,4′-dihydroxy-3,3′,5,5′-tetrapropylbiphenyl] | 4.32 ± 0.61 | 0.57 ± 0.08 | 98.28 ± 3.18 | 4.26 ± 0.40 | 94.51 ± 2.19 | 0.63 ± 0.08 | 19.29 ± 3.54 | 
CC(C)c1cc(-c2cc(C(C)C)c(C(=O)O)c(C(C)C)c2)cc(C(C)C)c1O [Example 8 group, 4′-hydroxy-3,3′,5,5′-tetraisopropylbiphenyl-4-carboxylic acid] | 4.35 ± 0.46 | 0.65 ± 0.08 | 96.90 ± 3.69 | 4.39 ± 0.73 | 96.09 ± 3.33 | 0.64 ± 0.14 | 25.83 ± 2.38 | 
CC(C)c1cc(-c2cc(C(C)C)c(Cl)c(C(C)C)c2)cc(C(C)C)c1O [Example 9 group, 4-chloro-4′-hydroxy-3,3′,5,5′-tetraisopropylbiphenyl] |  |  |  |  |  |  |  | TNF-α content (TNF-α [1]; rat, in vivo, iv, 40 mg/kg): 5.02 ± 0.39 ng/mL; IL-1β content (IL-1β [2]; rat, in vivo, iv, 40 mg/kg): 0.62 ± 0.12 ng/mL; SOD ACTIVITY (U/mL) (SOD [3]; rat, in vivo, iv, 40 mg/kg): 93.62 ± 2.73 U/mL; TNF-α content (TNF-α [4]; rat, in vivo, iv, 40 mg/kg): 5.17 ± 0.40 ng/mL; SOD ACTIVITY (U/mL) (SOD [5]; rat, in vivo, iv, 40 mg/kg): 92.26 ± 2.96 U/mL; IL-1β content (IL-1β [6]; rat, in vivo, iv, 40 mg/kg): 0.63 ± 0.07 ng/mL; Relative Brain infarction volume (%) ([7]; rat, in vivo, iv, 40 mg/kg): 24.74 ± 6.13 %
CC(C)c1cc(-c2cc(C(C)C)c(OC=O)c(C(C)C)c2)cc(C(C)C)c1O [Example 10 group] | 4.68 ± 0.61 | 0.66 ± 0.06 | 94.08 ± 2.83 | 5.05 ± 0.54 | 95.16 ± 3.88 | 0.67 ± 0.05 | 23.91 ± 5.44 | 
CC(C)c1cc(-c2cc(C(C)C)c(OC(=O)C(N)C(C)C)c(C(C)C)c2)cc(C(C)C)c1O (centres unmarked) [Example 11 group, 4′-hydroxy-3,3′,5,5′-tetraisopropylbiphenyl-2-amino-3-methylbutyrate] | 5.31 ± 0.51 | 0.76 ± 0.04 | 95.76 ± 3.93 | 5.16 ± 0.43 | 96.71 ± 4.29 | 0.71 ± 0.07 | 23.59 ± 4.11 | 
